The values below come from ChEMBL document CHEMBL1146944, “Synthesis of Pseudomonas quorum-sensing autoinducer analogs and structural entities required for induction of apoptosis in macrophages” (2006).

The subject of the test is P388. Nature of the test: Induction of apoptosis in P388D1 cell line. It is filed as functional, Mus musculus, DBA/2. Set-up: concentration or dose not given beside the values.

In turn, `O=C(CCCCCCCCCc1ccccc1)CC(=O)N[C@H]1CCOC1=O` had an Activity of 14.5%.
For `O=C(CCCCCCCc1ccccc1)CC(=O)N[C@H]1CCOC1=O` the value was 25.2%; for `O=C(CCCCCCCC1CC1)CC(=O)N[C@H]1CCOC1=O`, 38.7%; for `CCCCCCCCCC(=O)CC(=O)Nc1ccccc1O`, 109.6%.
For `O=C(CCCCCC1CC1)CC(=O)N[C@H]1CCOC1=O` the value was 122.9%; for `CCCCCCCCCC(=O)CC(=O)N[C@@H](C)C(=O)OC`, 111.2%; for `CCCCCCCCC(=O)CCC(=O)N[C@H]1CCOC1=O`, 115.6%.
For `O=C(CCCCCCCCCCCc1ccccc1)CC(=O)N[C@H]1CCOC1=O` the value was 12.2%; for `CCCCC(=O)CC(=O)N[C@H]1CCOC1=O`, 111%; for `CCCC(=O)N[C@H]1CCOC1=O`, 100.4%.
Compound `CCCCCCCC(=O)CCCC(=O)N[C@H]1CCOC1=O` showed an Activity of 97.7%.
Consider `O=C(O)CCC(=O)OCCCCCCCCCC(=O)CC(=O)N[C@H]1CCOC1=O`, for which the Activity was 114%.
In turn, `CCCCCCCCCC(=O)CC(=O)N[C@H]1CCCC[C@@H]1O` showed an Activity of 96.2%.
For the compound `CCCCCCCCCC(=O)CC(=O)N[C@@H]1CCOC1=O`, the Activity stood at 105%.
Then `CCCCC(=O)N[C@H]1CCOC1=O`, with 101.8%; and `O=C(CCCCCc1ccccc1)CC(=O)N[C@H]1CCOC1=O`, with 122%.
`CCCCCCCC(=O)CC(=O)N[C@H]1CCOC1=O`: the Activity turned out to be 107.7%.
For `CCCCCCCCCCCC(=O)CC(=O)N[C@H]1CCOC1=O` the value was 14.8%; for `CCCCCCCCCC(=O)CC(=O)N[C@H]1CCOC1=O`, 31.9%.
For `CCCCCCCCCCCC(=O)N[C@H]1CCOC1=O` the value was 91.1%; for `O=C(CCCCCCCCCO)CC(=O)N[C@H]1CCOC1=O`, 109.5%.
